Tests used:
[1] = tested on: d(CGCGAATTCGCG)2, Dickerson DNA duplex (ds) (DNA, duplex) CGCGAATTCGCG; experiment: ESI-MS, negative mode; conditions: NH4+ (100 mM ammonium acetate); pH 6.7; equimolar; reference ligand, value not shown
[2] = tested on: single stranded oligonucleotide d(CGCGAATTCGCG) (ss) (DNA, single strand) CGCGAATTCGCG; experiment: ESI-IM-MS, negative mode; conditions: NH4+ (100 mM ammonium acetate); 20% methanol, pH 6.7; 1:10 molar ratio (170 µM compound); very low abundance, none at 1:1

binding [1] | binding [2] | Structure (SMILES)
yes |  | N=C(N)c1ccc(N=NNc2ccc(C(=N)N)cc2)cc1
 | weak | NCCNC(=O)CCN(CCC(=O)NCCN)CCC(=O)NCCN
 | weak | O=C(CCN(CCC(=O)NCCNC(=S)Nc1ccccc1)CCC(=O)NCCNC(=S)Nc1ccccc1)NCCNC(=S)Nc1ccccc1
